Results from ChEMBL document CHEMBL5465560, “Selectivity Literature for EUbOPEN Chemogenomic Library” (2024).
Each block holds one compound with its values, some of them ahead of it.

How the values were obtained:
[1] = biological target: Tyrosine-protein kinase FRK (Homo sapiens) (UniProt P42685); conditions: at 10 µM
[2] = biological target: Estrogen receptor (Homo sapiens) (UniProt P03372); experiment: Selectivity interaction (Eurofins CEREP Diversity Profile (receptors and ion channels)) EUB0000279b ESR1; conditions: at 10 µM
[3] = biological target: T1, Mitogen-activated protein kinase 12 (Homo sapiens) (UniProt P53778); experiment: Selectivity interaction (Ambit KINOMEscan and KiNATiv profiling in Jurkat cells) EUB0000090b MAPK12; type: cell-based; conditions: at 1 µM
T1 sequence (whole entry): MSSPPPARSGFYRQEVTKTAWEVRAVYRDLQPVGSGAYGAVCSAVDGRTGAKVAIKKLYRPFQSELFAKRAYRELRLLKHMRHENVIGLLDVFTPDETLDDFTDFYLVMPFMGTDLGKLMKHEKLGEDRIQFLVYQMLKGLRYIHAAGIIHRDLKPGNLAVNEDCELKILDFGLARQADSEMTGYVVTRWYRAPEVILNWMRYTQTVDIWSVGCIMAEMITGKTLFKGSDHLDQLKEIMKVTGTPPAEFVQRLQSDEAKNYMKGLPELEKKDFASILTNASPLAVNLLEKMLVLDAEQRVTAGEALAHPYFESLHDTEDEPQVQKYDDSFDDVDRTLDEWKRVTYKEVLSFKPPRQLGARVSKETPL

[4] = biological target: Mitogen-activated protein kinase 8 (Homo sapiens, UniProt P45983); experiment: Selectivity interaction (Ambit KINOMEscan and KiNATiv profiling in Jurkat cells) EUB0000090b MAPK8; type: cell-based; conditions: at 1 µM
Sequence of Mitogen-activated protein kinase 8 (P45983 whole entry): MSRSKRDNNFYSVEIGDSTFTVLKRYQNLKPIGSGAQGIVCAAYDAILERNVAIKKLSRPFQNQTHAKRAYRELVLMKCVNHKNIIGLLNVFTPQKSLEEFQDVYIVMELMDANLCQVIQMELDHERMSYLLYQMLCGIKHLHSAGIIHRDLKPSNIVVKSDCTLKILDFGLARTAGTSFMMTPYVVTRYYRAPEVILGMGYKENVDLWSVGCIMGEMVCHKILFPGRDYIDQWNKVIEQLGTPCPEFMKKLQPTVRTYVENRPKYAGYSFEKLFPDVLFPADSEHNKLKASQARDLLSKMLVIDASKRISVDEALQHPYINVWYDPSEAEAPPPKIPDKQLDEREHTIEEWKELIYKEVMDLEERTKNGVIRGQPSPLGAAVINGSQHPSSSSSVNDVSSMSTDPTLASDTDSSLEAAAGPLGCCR

[5] = biological target: Serine/threonine-protein kinase PAK 6 (Homo sapiens) (UniProt Q9NQU5); experiment: Selectivity interaction (Ambit KINOMEscan and KiNATiv profiling in Jurkat cells) EUB0000090b PAK6; type: cell-based; conditions: at 1 µM
[6] = biological target: cAMP-dependent protein kinase catalytic subunit beta (Homo sapiens) (UniProt P22694); experiment: Selectivity interaction (Ambit KINOMEscan and KiNATiv profiling in Jurkat cells) EUB0000090b PRKACB; type: cell-based; conditions: at 1 µM
[7] = biological target: Histone-lysine N-methyltransferase, H3 lysine-36 specific (Homo sapiens) (UniProt Q96L73); experiment: Selectivity interaction (Methyltransferase screen (Scintillation proximity assays)) EUB0000255b NSD1
Sequence of Histone-lysine N-methyltransferase, H3 lysine-36 specific (Homo sapiens) (Q96L73 whole entry): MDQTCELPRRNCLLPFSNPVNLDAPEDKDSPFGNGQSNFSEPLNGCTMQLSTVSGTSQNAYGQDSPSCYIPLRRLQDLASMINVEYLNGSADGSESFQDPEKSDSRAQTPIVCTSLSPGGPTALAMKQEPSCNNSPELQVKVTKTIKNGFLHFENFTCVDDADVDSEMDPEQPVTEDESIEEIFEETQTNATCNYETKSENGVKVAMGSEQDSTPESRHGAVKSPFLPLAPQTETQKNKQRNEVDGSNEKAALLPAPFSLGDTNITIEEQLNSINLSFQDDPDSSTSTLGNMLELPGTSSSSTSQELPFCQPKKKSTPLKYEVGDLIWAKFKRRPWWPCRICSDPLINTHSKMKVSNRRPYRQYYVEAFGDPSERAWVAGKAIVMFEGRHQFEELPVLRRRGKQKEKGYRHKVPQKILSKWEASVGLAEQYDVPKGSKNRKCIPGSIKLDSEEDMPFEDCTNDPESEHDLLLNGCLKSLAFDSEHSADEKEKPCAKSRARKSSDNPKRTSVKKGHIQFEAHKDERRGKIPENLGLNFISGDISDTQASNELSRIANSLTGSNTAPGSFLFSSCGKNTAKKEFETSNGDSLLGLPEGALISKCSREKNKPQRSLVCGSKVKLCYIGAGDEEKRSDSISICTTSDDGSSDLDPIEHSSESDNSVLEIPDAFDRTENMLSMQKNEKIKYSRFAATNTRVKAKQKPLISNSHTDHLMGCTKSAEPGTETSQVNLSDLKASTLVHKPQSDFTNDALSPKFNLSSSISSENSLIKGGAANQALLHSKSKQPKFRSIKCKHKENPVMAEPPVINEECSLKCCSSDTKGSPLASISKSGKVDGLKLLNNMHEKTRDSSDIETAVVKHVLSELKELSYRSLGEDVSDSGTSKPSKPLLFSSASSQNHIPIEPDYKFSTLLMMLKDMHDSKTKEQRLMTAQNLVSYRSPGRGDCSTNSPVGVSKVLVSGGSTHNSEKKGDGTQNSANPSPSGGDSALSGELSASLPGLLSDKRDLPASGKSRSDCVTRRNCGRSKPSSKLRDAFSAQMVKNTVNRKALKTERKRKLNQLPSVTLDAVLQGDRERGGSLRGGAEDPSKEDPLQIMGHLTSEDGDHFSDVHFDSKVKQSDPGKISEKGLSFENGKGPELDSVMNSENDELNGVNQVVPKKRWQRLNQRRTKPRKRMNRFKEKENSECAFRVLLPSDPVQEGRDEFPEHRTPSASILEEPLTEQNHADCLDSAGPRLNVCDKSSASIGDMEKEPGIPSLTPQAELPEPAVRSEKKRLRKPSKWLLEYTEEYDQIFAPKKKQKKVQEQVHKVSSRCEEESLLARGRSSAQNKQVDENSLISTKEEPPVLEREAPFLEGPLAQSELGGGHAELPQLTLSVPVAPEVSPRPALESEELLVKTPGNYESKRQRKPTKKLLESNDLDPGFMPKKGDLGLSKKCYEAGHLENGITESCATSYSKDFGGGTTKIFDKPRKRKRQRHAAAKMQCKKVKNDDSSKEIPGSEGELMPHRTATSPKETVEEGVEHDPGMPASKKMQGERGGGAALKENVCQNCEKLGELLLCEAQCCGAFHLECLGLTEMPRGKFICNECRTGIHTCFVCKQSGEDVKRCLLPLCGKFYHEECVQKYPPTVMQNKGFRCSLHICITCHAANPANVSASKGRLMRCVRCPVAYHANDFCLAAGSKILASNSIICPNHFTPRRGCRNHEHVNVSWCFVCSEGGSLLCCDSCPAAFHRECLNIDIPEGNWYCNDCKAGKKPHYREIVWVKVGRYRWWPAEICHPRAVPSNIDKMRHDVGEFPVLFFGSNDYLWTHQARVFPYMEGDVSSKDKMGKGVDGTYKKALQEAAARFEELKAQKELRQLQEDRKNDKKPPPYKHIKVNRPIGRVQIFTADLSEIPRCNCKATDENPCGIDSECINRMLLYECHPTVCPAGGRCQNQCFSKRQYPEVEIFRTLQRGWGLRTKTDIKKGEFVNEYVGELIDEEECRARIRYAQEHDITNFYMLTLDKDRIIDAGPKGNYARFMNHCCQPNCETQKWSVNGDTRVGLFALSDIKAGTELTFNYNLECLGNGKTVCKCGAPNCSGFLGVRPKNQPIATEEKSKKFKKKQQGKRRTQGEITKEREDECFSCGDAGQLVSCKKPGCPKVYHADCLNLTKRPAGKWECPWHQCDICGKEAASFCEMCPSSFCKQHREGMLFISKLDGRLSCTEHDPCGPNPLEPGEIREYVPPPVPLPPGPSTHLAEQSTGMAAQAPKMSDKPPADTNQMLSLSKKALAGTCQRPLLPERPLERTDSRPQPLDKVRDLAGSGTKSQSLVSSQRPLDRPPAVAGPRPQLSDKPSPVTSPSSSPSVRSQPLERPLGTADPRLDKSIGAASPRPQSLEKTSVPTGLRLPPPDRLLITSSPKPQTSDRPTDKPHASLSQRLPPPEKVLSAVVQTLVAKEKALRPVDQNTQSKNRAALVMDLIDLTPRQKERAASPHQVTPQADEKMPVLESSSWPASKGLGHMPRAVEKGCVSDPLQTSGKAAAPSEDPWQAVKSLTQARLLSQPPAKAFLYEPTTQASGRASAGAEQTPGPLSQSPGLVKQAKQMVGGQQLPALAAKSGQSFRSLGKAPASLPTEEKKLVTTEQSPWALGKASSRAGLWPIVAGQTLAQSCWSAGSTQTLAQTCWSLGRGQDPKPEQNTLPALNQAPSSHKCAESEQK

[8] = biological target: Beta-1 adrenergic receptor (Homo sapiens, UniProt P08588); experiment: Selectivity interaction (GPCR panel (PDSP screen)) EUB0001079a ADRB1; conditions: at 10 µM
Sequence of Beta-1 adrenergic receptor (P08588 whole entry, looked up): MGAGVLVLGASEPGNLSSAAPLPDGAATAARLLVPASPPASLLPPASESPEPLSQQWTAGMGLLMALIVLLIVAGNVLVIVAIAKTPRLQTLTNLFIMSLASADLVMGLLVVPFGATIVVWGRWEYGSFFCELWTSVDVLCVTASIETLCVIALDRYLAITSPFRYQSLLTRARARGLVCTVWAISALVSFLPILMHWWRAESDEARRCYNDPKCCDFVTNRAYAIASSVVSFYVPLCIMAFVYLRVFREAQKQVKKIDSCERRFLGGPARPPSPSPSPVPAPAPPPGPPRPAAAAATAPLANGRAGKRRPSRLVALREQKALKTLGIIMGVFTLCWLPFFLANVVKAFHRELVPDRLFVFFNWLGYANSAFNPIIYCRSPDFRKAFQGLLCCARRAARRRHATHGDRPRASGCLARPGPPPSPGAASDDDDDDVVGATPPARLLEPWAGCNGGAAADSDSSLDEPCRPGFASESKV

[9] = biological target: Serine/threonine-protein kinase pim-1 (Homo sapiens, UniProt P11309); experiment: Selectivity interaction (Millipore kinase profiler) EUB0000124b PIM1; conditions: at 10 µM
[10] = biological target: Ribosomal protein S6 kinase alpha-5 (Homo sapiens) (UniProt O75582); experiment: Selectivity interaction (KinomeScan (DiscoverX)) EUB0000618a RPS6KA5; conditions: at 10 µM
Sequence of Ribosomal protein S6 kinase alpha-5 (Homo sapiens) (O75582 whole entry, looked up): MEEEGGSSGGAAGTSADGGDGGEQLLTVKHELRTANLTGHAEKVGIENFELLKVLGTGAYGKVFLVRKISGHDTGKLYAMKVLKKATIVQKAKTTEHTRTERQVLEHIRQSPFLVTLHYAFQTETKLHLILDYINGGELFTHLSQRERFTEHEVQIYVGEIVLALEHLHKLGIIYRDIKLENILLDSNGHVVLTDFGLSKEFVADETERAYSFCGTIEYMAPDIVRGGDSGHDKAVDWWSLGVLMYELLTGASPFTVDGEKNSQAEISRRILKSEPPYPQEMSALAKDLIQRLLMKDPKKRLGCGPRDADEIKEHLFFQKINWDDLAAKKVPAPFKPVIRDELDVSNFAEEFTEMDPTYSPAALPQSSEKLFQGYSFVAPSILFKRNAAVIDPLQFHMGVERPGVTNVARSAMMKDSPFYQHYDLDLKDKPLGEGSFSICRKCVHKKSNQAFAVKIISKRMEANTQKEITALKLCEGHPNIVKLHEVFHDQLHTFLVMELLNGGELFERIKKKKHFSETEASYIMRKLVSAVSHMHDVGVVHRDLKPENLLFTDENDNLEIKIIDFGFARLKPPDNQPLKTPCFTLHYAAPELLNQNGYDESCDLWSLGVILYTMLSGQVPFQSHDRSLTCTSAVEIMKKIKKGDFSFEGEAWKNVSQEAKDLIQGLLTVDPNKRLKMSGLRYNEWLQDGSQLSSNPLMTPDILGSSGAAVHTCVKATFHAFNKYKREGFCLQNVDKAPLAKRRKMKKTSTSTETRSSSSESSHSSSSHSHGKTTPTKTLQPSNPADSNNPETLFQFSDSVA

[11] = biological target: T2, Serine/threonine-protein kinase ICK (Homo sapiens) (UniProt Q9UPZ9); experiment: Selectivity interaction (KinomeScan (DiscoverX)) EUB0000607a ICK; conditions: at 10 µM
T2 sequence (whole entry): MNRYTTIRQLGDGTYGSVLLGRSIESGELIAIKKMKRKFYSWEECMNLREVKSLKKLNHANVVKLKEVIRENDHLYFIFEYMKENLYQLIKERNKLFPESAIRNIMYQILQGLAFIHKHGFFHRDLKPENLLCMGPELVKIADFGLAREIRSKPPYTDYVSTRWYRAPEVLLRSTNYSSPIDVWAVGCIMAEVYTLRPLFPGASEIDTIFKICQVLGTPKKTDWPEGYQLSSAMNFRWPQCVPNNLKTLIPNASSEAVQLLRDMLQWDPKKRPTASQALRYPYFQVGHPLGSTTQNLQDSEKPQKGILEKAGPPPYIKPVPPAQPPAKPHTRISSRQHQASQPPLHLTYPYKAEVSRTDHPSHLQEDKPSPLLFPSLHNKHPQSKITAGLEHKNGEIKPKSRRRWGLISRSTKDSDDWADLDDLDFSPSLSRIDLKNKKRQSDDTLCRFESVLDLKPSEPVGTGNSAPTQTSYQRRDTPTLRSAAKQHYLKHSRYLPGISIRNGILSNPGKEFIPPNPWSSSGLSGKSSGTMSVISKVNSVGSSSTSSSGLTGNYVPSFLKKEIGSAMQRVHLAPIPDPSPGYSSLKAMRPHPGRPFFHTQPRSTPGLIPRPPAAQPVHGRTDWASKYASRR

[12] = biological target: Maternal embryonic leucine zipper kinase (Homo sapiens) (UniProt Q14680); experiment: Selectivity interaction (Kinase panel (DSF assay)) EUB0001558a MELK
Sequence of Maternal embryonic leucine zipper kinase (Homo sapiens) (Q14680 whole entry, looked up): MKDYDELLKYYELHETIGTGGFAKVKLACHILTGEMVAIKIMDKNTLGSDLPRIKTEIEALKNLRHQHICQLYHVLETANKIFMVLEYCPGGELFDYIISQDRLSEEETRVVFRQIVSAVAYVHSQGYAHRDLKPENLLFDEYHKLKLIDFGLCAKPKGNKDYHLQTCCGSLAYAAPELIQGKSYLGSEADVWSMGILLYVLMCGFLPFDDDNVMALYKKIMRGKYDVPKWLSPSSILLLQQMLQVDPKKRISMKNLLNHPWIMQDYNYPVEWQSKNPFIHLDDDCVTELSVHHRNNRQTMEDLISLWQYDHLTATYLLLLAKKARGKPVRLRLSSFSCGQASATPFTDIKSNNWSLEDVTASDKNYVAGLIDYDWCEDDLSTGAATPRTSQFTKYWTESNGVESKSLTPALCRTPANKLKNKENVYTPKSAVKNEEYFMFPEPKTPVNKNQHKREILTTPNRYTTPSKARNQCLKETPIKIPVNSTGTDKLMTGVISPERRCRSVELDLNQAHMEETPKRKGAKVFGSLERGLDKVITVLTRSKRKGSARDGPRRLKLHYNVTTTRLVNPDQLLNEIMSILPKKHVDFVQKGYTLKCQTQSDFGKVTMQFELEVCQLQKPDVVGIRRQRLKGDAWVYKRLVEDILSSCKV

[13] = biological target: Death-associated protein kinase 2 (Homo sapiens) (UniProt Q9UIK4); conditions: at 10 µM
[14] = biological target: Ribosomal protein S6 kinase alpha-3 (Homo sapiens, UniProt P51812); experiment: Selectivity interaction (ActivX KiNativ screen (kinase selectivity in THP-1 cell lysates)) EUB0000639a RPS6KA3; type: subcellular; conditions: lysate, at 1 µM
[15] = biological target: DNA (cytosine-5)-methyltransferase 3B (Homo sapiens) (UniProt Q9UBC3); experiment: Selectivity interaction (Transferase panel (protein, RNA, and DNA methyltransferases. and EP300 (acetyltransferase))) EUB0000270b DNMT3B
[16] = biological target: Protein kinase C beta type (Homo sapiens, UniProt P05771); experiment: Selectivity interaction (ProQinase) EUB0000171b PRKCB; conditions: at 5 µM
[17] = biological target: T3, Hormonally up-regulated neu tumor-associated kinase (Homo sapiens) (UniProt P57058); experiment: Selectivity interaction (KinomeScan (DiscoverX)) EUB0000666a HUNK; conditions: at 10 µM
T3 sequence (whole entry): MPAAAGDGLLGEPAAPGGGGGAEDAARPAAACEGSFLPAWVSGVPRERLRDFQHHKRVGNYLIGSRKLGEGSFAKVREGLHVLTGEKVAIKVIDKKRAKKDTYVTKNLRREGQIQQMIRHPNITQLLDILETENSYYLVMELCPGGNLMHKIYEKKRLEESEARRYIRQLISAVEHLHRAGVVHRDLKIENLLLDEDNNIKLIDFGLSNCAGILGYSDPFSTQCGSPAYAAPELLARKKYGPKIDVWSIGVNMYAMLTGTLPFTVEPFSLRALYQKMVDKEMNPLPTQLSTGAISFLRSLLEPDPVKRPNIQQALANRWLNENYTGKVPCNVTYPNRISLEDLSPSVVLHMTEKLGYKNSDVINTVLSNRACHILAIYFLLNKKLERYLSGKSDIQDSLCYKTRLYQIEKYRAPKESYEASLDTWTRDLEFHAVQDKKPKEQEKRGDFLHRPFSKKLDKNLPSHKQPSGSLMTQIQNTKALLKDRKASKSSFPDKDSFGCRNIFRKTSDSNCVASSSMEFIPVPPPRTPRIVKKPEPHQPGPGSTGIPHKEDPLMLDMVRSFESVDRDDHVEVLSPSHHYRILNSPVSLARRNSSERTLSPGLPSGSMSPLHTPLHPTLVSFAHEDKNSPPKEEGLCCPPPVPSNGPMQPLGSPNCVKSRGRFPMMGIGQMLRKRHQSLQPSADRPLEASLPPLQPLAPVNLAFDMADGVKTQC

% of control [1]: 100%
Structure (SMILES): CCN(CC)CCCCNc1ncc2cc(-c3cc(OC)cc(OC)c3)c(NC(=O)NC(C)(C)C)nc2n1

% of control [2]: 98%
Structure (SMILES): CC(=O)c1cc(-c2ccccc2OCC2CC2)c2ncccn12

Structure (SMILES): CN(C)C/C=C/C(=O)Nc1ccc(C(=O)N2CCCC(Nc3ncc(Cl)c(-c4c[nH]c5ccccc45)n3)C2)cc1 (centres undefined)
% of control [3]: 78%
% of control [4]: 0.95%
% of control [5]: 33%
% of control [6]: 90%

Structure (SMILES): COCCN1CCC(c2cc(CN(C)C(=O)c3cccc(Oc4ccccc4)c3)ccn2)CC1
% activity ([7]; at 1 µM): > 95%
% activity ([7]; at 10 µM): > 90%

Structure (SMILES): Nc1cnc(N2CCc3cc(S(=O)(=O)Nc4c(F)cc(Cl)cc4F)cc(N4CCCC4=O)c32)nc1 [TP-020n]
% of inhibition [8]: 8.84%

% of control [9]: 94%
Structure (SMILES): CC(=O)Nc1cccc(-n2c(=O)n(C3CC3)c(=O)c3c(Nc4ccc(I)cc4F)n(C)c(=O)c(C)c32)c1

Structure (SMILES): O[C@H]1CC[C@H](Nc2ncc3nc(Nc4c(F)cc(F)cc4F)n([C@H]4CCOC4)c3n2)CC1
% of control [10]: 68%

Structure (SMILES): CNC(=O)Nc1ccc(-c2nc(N3CC4CCC(C3)O4)c3cnn(C4CCC5(CC4)OCCO5)c3n2)cc1
% of control [11]: 87%

Structure (SMILES): CC(C)(O)[C@H](F)CN1Cc2cc(NC(=O)c3cnn4cccnc34)c(N3CCOCC3)cc2C1=O
dTM [12]: 0.9 K

Structure (SMILES): COCC(=O)NC/C=C/c1ccc2ncnc(Nc3ccc(Oc4ccc(C)nc4)c(C)c3)c2c1 [CP-724714]
% of control [13]: 89%

% of inhibition [14]: -8.2%
Structure (SMILES): CC[C@@H]1[C@H](F)C(=O)N[C@@H]1COc1nccc2cc(C(N)=O)c(OC)cc12 [ZIMLOVISERTIB]

% activity ([15]; at 1 µM): > 90%
% activity ([15]; at 10 µM): > 80%
Structure (SMILES): Cc1cc(CN)cc(C)c1-c1ncn(C)c1-c1cncn1C

% of control [16]: 81%
Structure (SMILES): C=CC(=O)Nc1cccc(C(=O)Nc2ccc(Nc3cc(-c4[nH]c(SC)nc4C)ccn3)cc2)c1

Structure (SMILES): O=C(NOC[C@H](O)CO)c1ccc(F)c(F)c1Nc1ccc(I)cc1F
% of control [17]: 100%
